Tests used:
Format in all cases: cell-based, mouse
[1] = system: cut neurites of SCG neurons; experiment: Cut neurites of SCG explant cultures (Wallerian degeneration)
Procedure: Explants were placed into L15 (Leibovitz) medium (Invitrogen), cleaned from other tissues, cut in half and six half explants were placed in the centre of 3.5 cm tissue culture dishes pre-coated with poly-L-lysine (20 μg/ml for 2 h; Sigma) and laminin (20 μg/ml for 2 h; Sigma). Explants were cultured in DMEM containing 4500 mg/L glucose and 110 mg/L sodium pyruvate (Sigma), 2 mM glutamine, 1% penicillin/streptomycin, 1/50 B27 serum supplement and 100 ng/ml 7S NGF (all from Invitrogen) and 4 μM aphidicolin (Sigma) to block proliferation of non-neuronal cells. Neurites were allowed to extend for 7 days in all cultures before any treatment. After this time, neurites were separated from their cell bodies using a scalpel. […] Bright-field images were captured on an Olympus IX81 inverted microscope using a Soft Imaging Systems F-View camera linked to a PC running the Analysis software. Images of the same field of neurites were captured just after or at regular intervals up to 48-72 hours after cut injuries. […] In this experiment, SCG neurons were cultured for 7 days as described in the methodology, then the neurites were separated from the cell bodies by a scalpel, and the distal part of the neurites with respect to the cut was imaged immediately after the cut or 24 hours after the cut.

neurites of SCG neurons = experiment: Vincristine-treated neurites of SCG explant cultures
Procedure: (§1) Explants were placed into L15 (Leibovitz) medium (Invitrogen), cleaned from other tissues, cut in half and six half explants were placed in the centre of 3.5 cm tissue culture dishes pre-coated with poly-L-lysine (20 μg/ml for 2 h; Sigma) and laminin (20 μg/ml for 2 h; Sigma). Explants were cultured in DMEM containing 4500 mg/L glucose and 110 mg/L sodium pyruvate (Sigma), 2 mM glutamine, 1% penicillin/streptomycin, 1/50 B27 serum supplement and 100 ng/ml 7S NGF (all from Invitrogen) and 4 μM aphidicolin (Sigma) to block proliferation of non-neuronal cells. Neurites were allowed to extend for 7 days in all cultures before any treatment. After this time, neurites were separated from their cell bodies using a scalpel. […] Bright-field images were captured on an Olympus IX81 inverted microscope using a Soft Imaging Systems F-View camera linked to a PC running the Analysis software. Images of the same field of neurites were captured just after or at regular intervals up to 48-72 hours after cut injuries.
This experiment was performed in an analogous manner to that described in Examples 2 and 3, however the neurites, instead of being separated by the cell body with a cut, were treated with the neurotoxic chemotherapy drug vincristine. […] The distal part of the neurites was imaged immediately and at 24, 48 and 72 hours after adding the drugs.

[2] = system: intracellular NAD(P)^+ levels in SCG cultures; experiment: NAD(P)+ levels in SCG explant cultures; conditions: 100 nM FK866 for 8 h or 24 h; FIG. 2
Procedure: as §1
At this time, the explants were collected in 100 μl H2O for NAD(P)^+ determination as described in Billington et al. (2008) J Biol Chem 283(10), 6367-6374.
The results of this analysis can be seen in FIG. 2. […] Therefore, the reduced intracellular levels of NMN^+ result in a reduction in the turnover of NMN^+ to NAD^+ by isoforms of Nmnat.

SMILES: NC(=O)c1ccc[n+]([C@@H]2O[C@H](COP(=O)([O-])O)[C@@H](O)[C@H]2O)c1 [NMN, nicotinamide mononucleotide]
- effect of adding NMN^+ with FK866 on cut neurites ([1]; NMN^+ in combination with FK866, FIG. 4): reverts the protective effect of FK866
- effect of adding NMN with FK866 on vincristine-treated neurites (neurites of SCG neurons; 0.02 μM vincristine plus 100 nM FK866 and 1 mM NMN, FIG. 5): protective effect is reverted

SMILES: O=C(/C=C/c1cccnc1)NCCCCC1CCN(C(=O)c2ccccc2)CC1 [FK866, N-[4-(1-benzoyl-4-piperidinyl)butyl]-3-(3-pyridinyl)-2E-propenamide]
- neurite survival increase ([1]; FK866 100 nM, cut neurites, estimated): increased by four fold
- effect on injured (cut) neurites ([1]; FK866 100 nM, imaged 24 hours after cut, FIG. 3): preserving injured neurites in primary culture even if added shortly after cutting
- neuroprotective effect on cell bodies ([1]; data not shown): does not extend to cell bodies
- effect on NAD^+ levels [2]: depletion of NAD^+
- effect on vincristine-induced neurite degeneration (neurites of SCG neurons; 0.02 μM vincristine plus 100 nM FK866, up to 72 hours, FIG. 5): protection

SMILES: CC[C@]1(O)C[C@H]2CN(CCc3c([nH]c4ccccc34)[C@@](C(=O)OC)(c3cc4c(cc3OC)N(C=O)[C@H]3[C@@](O)(C(=O)OC)[C@H](OC(C)=O)[C@]5(CC)C=CCN6CC[C@]43[C@@H]65)C2)C1 [Vincristine, vincristine]
- toxic effect on neurites (neurites of SCG neurons; 0.02 μM vincristine alone): progressive distal-to-proximal degeneration of neurites

Source: patent publication US20130131111A1, “NMN MODULATORS FOR THE TREATMENT OF NEURODEGENERATIVE DISORDERS” (Babraham Institute, priority 2010, published 2013)
